Target: T1, Human BCL-XL protein (N-terminal HiBiT tagged BCL-XL expressed in HT1080 cells) (Homo sapiens, UniProt Q07817)
T1 construct: expressed in transfected cells; host or cells: HT-1080 (ATCC CCL-121), stably transduced with lentivirus pLV-UBC-N-HiBiT-BCL-XL-PGK-puro and selected with puromycin
Experiment: HiBiT Based Degradation Assay
Assay type: cell-based
Settings: 24 hours incubation; for DC50: BCL-XL degradation, HT1080 cells expressing N-HiBiT-BCL-XL, normalized with DMSO control, geometric mean for multiple data points, read-out: EC50 (24 h); for Ymin (24 h): bottom of BCL-XL degradation curve (remaining HiBiT-BCL-XL signal vs DMSO control), HT1080 cells
How it was run: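 BCL-XL degradation was read as Nano-Glo HiBiT lytic luminescence relative to DMSO after a 24 h compound treatment of HT1080 cells carrying stably integrated N-HiBiT-BCL-XL. EC50 values come from four-parameter logistic curves, with the hook-curve minimum fixed as bottom, and are geometric means where tested repeatedly.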

T1 sequence (Q07817 whole entry): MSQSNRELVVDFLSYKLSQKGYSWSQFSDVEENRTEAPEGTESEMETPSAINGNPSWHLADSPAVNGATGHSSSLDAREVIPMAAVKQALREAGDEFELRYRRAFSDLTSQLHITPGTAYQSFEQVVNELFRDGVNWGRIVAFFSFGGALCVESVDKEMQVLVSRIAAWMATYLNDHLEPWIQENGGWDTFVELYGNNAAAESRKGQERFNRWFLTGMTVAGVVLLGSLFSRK

Row | DC50 [nM] | Ymin (24 h) | Structure (SMILES)
1 | < 10 | A (Ymin < 30%) | Cc1cc(OC[C@@H]2C[C@H]2CC2CCN(CC(=O)Nc3ccc4c(C5CCC(=O)NC5=O)nn(C)c4c3)CC2)ccc1-c1ccc(N2CCc3cccc(C(=O)Nc4nc5ccccc5s4)c3C2)nc1C(=O)O (single isomer, unassigned) [Compound 1002c]
2 | < 10 | A (Ymin < 30%) | Cc1cc(OCCCC2(O)CCN(CC(=O)Nc3ccc4c(C5CCC(=O)NC5=O)nn(C)c4c3)CC2)ccc1-c1ccc(N2CCc3cccc(C(=O)Nc4nc5ccccc5s4)c3C2)nc1C(=O)O (stereo not drawn) [Compound 107, 6-(8-(benzo[d]thiazol-2-ylcarbamoyl)-3,4-dihydroisoquinolin-2(1H)-yl)-3-(4-(3-(1-(2-((3-(2,6-dioxopiperidin-3-yl)-1-methyl-1H-indazol-6-yl)amino)-2-oxoethyl)-4-hydroxypiperidin-4-yl)propoxy)-2-methylphenyl)picolinic acid]
3 | < 10 | A (Ymin < 30%) | Cc1cc(OC2CC3(CCN(CC(=O)Nc4ccc5c(C6CCC(=O)NC6=O)nn(C)c5n4)CC3)C2)ccc1-c1ccc(N2CCc3ccnc(C(=O)Nc4nc5ccccc5s4)c3C2)nc1C(=O)O (stereo not drawn) [Compound 213]
4 | < 10 | B (30% ≤ Ymin < 50%) | Cc1c(NCCCC2CCN(CC(=O)Nc3ccc4c(C5CCC(=O)NC5=O)nn(C)c4c3)CC2)cccc1-c1ccc(N2CCc3cccc(C(=O)Nc4nc5ccccc5s4)c3C2)nc1C(=O)O (stereo not drawn) [Compound 217]
5 | 10 to 100 | B (30% ≤ Ymin < 50%) | COc1c(NC(=O)CN2CCC(CCCOc3cccc(-c4ccc(N5CCc6cccc(C(=O)Nc7nc8ccccc8s7)c6C5)nc4C(=O)O)c3C)CC2)ccc2c(C3CCC(=O)NC3=O)nn(C)c12 (stereo not drawn) [Compound 104, 6-[8-(1,3-benzothiazol-2-ylcarbamoyl)-3,4-dihydro-1H-isoquinolin-2-yl]-3-[3-[3-[1-[2-[[3-(2,6-dioxo-3-piperidyl)-7-methoxy-1-methyl-indazol-6-yl]amino]-2-oxo-ethyl]-4-piperidyl]propoxy]-2-methyl-phenyl]pyridine-2-carboxylic acid]
6 | 10 to 100 | B (30% ≤ Ymin < 50%) | Cn1nc(C2CCC(=O)NC2=O)c2ccc(NC(=O)CN3CCC4(CC3)CC(Oc3ccc(-c5ccc(N6CCc7cccc(C(=O)Nc8nc9ccccc9s8)c7C6)nc5C(=O)O)c(C(F)(F)F)c3)C4)nc21 (stereo not drawn) [Compound 193]
7 | < 10 | A (Ymin < 30%) | Cc1cc(OCCCC2CCN(CCOc3ccc4c(C5CCC(=O)NC5=O)nn(C)c4c3)CC2)ccc1-c1ccc(N2CCc3cccc(C(=O)Nc4nc5ccccc5s4)c3C2)nc1C(=O)O (stereo not drawn) [Compound 178, 6-[8-(1,3-benzothiazol-2-ylcarbamoyl)-3,4-dihydro-1H-isoquinolin-2-yl]-3-[4-[3-[1-[2-[3-(2,6-dioxo-3-piperidyl)-1-methyl-indazol-6-yl]oxyethyl]-4-piperidyl]propoxy]-2-methyl-phenyl]pyridine-2-carboxylic acid]
8 | < 10 | A (Ymin < 30%) | Cc1cc(OC2CC3(CCN(CC(=O)Nc4ccc5c(C6CCC(=O)NC6=O)nn(C)c5c4)CC3)C2)ccc1-c1ccc(N2CCc3cccc(C(=O)Nc4nc5ccccc5s4)c3C2)nc1C(=O)O (stereo not drawn) [Compound 112, 6-[8-(1,3-benzothiazol-2-ylcarbamoyl)-3,4-dihydro-1H-isoquinolin-2-yl]-3-[4-[[7-[2-[[3-(2,6-dioxo-3-piperidyl)-1-methyl-indazol-6-yl]amino]-2-oxo-ethyl]-7-azaspiro[3.5]nonan-2-yl]oxy]-2-methyl-phenyl]pyridine-2-carboxylic acid]
9 | < 10 | A (Ymin < 30%) | Cc1cc(OCCC[C@@H]2CCN(CC(=O)Nc3ccc4c(C5CCC(=O)NC5=O)nn(C)c4c3)[C@H](C)C2)ccc1-c1ccc(N2CCc3ccnc(C(=O)Nc4nc5ccccc5s4)c3C2)nc1C(=O)O (stereo partly drawn) [Compound 219d]
10 | < 10 | B (30% ≤ Ymin < 50%) | C[C@@H]1C[C@@H](CCCOc2ccc(-c3ccc(N4CCc5cccc(C(=O)Nc6nc7ccccc7s6)c5C4)nc3C(=O)O)c(C(F)(F)F)c2)CCN1CC(=O)Nc1ccc2c(C3CCC(=O)NC3=O)nn(C)c2c1 (stereo partly drawn) [Compound 209d]
11 | < 10 | A (Ymin < 30%) | COc1c(NC(=O)CN2CCC3(CC2)CC(COc2ccc(-c4ccc(N5CCc6cccc(C(=O)Nc7nc8ccccc8s7)c6C5)nc4C(=O)O)c(C)c2)C3)ccc2c(C3CCC(=O)NC3=O)nn(C)c12 (stereo not drawn) [Compound 128, 6-(8-(benzo[d]thiazol-2-ylcarbamoyl)-3,4-dihydroisoquinolin-2(1H)-yl)-3-(4-((7-(2-((3-(2,6-dioxopiperidin-3-yl)-7-methoxy-1-methyl-1H-indazol-6-yl)amino)-2-oxoethyl)-7-azaspiro[3.5]nonan-2-yl)methoxy)-2-methylphenyl)picolinic acid]
12 | 10 to 100 | B (30% ≤ Ymin < 50%) | C[C@@H]1CC(CCCOc2cccc(-c3ccc(N4CCc5cccc(C(=O)Nc6nc7ccccc7s6)c5C4)nc3C(=O)O)c2C(F)(F)F)CCN1CC(=O)Nc1ccc2c(C3CCC(=O)NC3=O)nn(C)c2c1 (stereo partly drawn) [Compound 215d]
13 | 10 to 100 | C (50% ≤ Ymin < 70%) | Cc1c(OCCCCC2CCN(Cc3nc4cc(C5CCC(=O)NC5=O)ccc4n3C)CC2)cccc1-c1ccc(N2CCc3cccc(C(=O)Nc4nc5ccccc5s4)c3C2)nc1C(=O)O (stereo not drawn) [Compound 2002]
14 | 10 to 100 | B (30% ≤ Ymin < 50%) | Cn1nc(C2CCC(=O)NC2=O)c2ccc(NC(=O)CN3CCC4(CC3)CC(COc3cccc(-c5ccc(N6CCc7ccnc(C(=O)Nc8nc9ccccc9s8)c7C6)nc5C(=O)O)c3C(F)(F)F)C4)cc21 (stereo not drawn) [Compound 161, 6-[8-(1,3-benzothiazol-2-ylcarbamoyl)-3,4-dihydro-1H-2,7-naphthyridin-2-yl]-3-[3-[[7-[2-[[3-(2,6-dioxo-3-piperidyl)-1-methyl-indazol-6-yl]amino]-2-oxo-ethyl]-7-azaspiro[3.5]nonan-2-yl]methoxy]-2-(trifluoromethyl)phenyl]pyridine-2-carboxylic acid]
15 | 10 to 100 | B (30% ≤ Ymin < 50%) | Cn1nc(C2CCC(=O)NC2=O)c2ccc(NC(=O)CN3CCC(CCCOc4ccc(-c5ccc(N6CCc7cccc(C(=O)Nc8nc9ccccc9s8)c7C6)nc5C(=O)O)c(C(F)(F)F)c4)CC3)nc21 (stereo not drawn) [Compound 146]
16 | 10 to 100 | B (30% ≤ Ymin < 50%) | Cc1cc(O[C@H](C)CCC2CCN(CC(=O)Nc3ccc4c(C5CCC(=O)NC5=O)nn(C)c4c3)CC2)ccc1-c1ccc(N2CCc3ccnc(C(=O)Nc4nc5ccccc5s4)c3C2)nc1C(=O)O (single isomer, unassigned) [Compound 133a]
17 | 10 to 100 | B (30% ≤ Ymin < 50%) | Cc1cc(OCC2CC3(CCN(CC(=O)Nc4ccc5c(C6CCC(=O)NC6=O)nn(C)c5c4C(F)(F)F)CC3)C2)ccc1-c1ccc(N2CCc3cccc(C(=O)Nc4nc5ccccc5s4)c3C2)nc1C(=O)O (stereo not drawn) [Compound 136]
18 | < 10 | B (30% ≤ Ymin < 50%) | Cc1c(OCCCC2CCN(CCNc3ccc4c(C5CCC(=O)NC5=O)nn(C)c4c3)CC2)cccc1-c1ccc(N2CCc3cccc(C(=O)Nc4nc5ccccc5s4)c3C2)nc1C(=O)O (stereo not drawn) [Compound 150, 6-[8-(1,3-benzothiazol-2-ylcarbamoyl)-3,4-dihydro-1H-isoquinolin-2-yl]-3-[3-[3-[1-[2-[[3-(2,6-dioxo-3-piperidyl)-1-methyl-indazol-6-yl]amino]ethyl]-4-piperidyl]propoxy]-2-methyl-phenyl]pyridine-2-carboxylic acid]
19 | 10 to 100 | A (Ymin < 30%) | COc1c(NC(=O)CN2CCC3(CC2)CC(COc2cccc(-c4ccc(N5CCc6cccc(C(=O)Nc7nc8ccccc8s7)c6C5)nc4C(=O)O)c2C)C3)ccc2c(C3CCC(=O)NC3=O)nn(C)c12 (stereo not drawn) [Compound 127]
20 | 10 to 100 | B (30% ≤ Ymin < 50%) | Cc1c(OC[C@H]2C[C@@H]2CC2CCN(CC(=O)Nc3ccc4c(C5CCC(=O)NC5=O)nn(C)c4c3)CC2)cccc1-c1ccc(N2CCc3cccc(C(=O)Nc4nc5ccccc5s4)c3C2)nc1C(=O)O (single isomer, unassigned) [Compound 1004a]
21 | 10 to 100 | B (30% ≤ Ymin < 50%) | Cn1nc(C2CCC(=O)NC2=O)c2ccc(NC(=O)CN3CCC4(CC3)CC(Oc3ccc(-c5ccc(N6CCc7ccnc(C(=O)Nc8nc9ccccc9s8)c7C6)nc5C(=O)O)c(C(F)(F)F)c3)C4)nc21 (stereo not drawn) [Compound 206]
22 | 10 to 100 | A (Ymin < 30%) | COc1c(NC(=O)CN2CCC(CCCOc3ccc(-c4ccc(N5CCc6cccc(C(=O)Nc7nc8ccccc8s7)c6C5)nc4C(=O)O)c(C(F)(F)F)c3)CC2)ccc2c(C3CCC(=O)NC3=O)nn(C)c12 (stereo not drawn) [Compound 142]
23 | 10 to 100 | B (30% ≤ Ymin < 50%) | Cc1cc(OCC2CC3(CCN(CC(=O)Nc4ccc5c(C6CCC(=O)NC6=O)nn(C)c5c4F)CC3)C2)ccc1-c1ccc(N2CCc3cccc(C(=O)Nc4nc5ccccc5s4)c3C2)nc1C(=O)O (stereo not drawn) [Compound 122, 6-(8-(benzo[d]thiazol-2-ylcarbamoyl)-3,4-dihydroisoquinolin-2(1H)-yl)-3-(4-((7-(2-((3-(2,6-dioxopiperidin-3-yl)-7-fluoro-1-methyl-1H-indazol-6-yl)amino)-2-oxoethyl)-7-azaspiro[3.5]nonan-2-yl)methoxy)-2-methylphenyl)picolinic acid]
24 | 10 to 100 | B (30% ≤ Ymin < 50%) | Cn1nc(C2CCC(=O)NC2=O)c2ccc(NC(=O)CN3CCC4(CC3)CC(Oc3ccc(-c5ccc(N6CCc7ccnc(C(=O)Nc8nc9ccccc9s8)c7C6)nc5C(=O)O)c(C(F)(F)F)c3)C4)c(F)c21 (stereo not drawn) [Compound 203]

Source: patent publication US20260216170A1, “TETRAHYDROISOQUINOLINE HETEROBIFUNCTIONAL BCL-XL DEGRADERS” (Treeline Biosciences, Inc., priority 2023, published 2026)
